Assay results from US20050101595A1, “N-containing cycloalkyl-substituted amino-thiazole derivatives and pharmaceutical compositions for inhibiting cell proliferation and methods for their use” (PFIZER INC., priority 2003, published 2005).
Where a name gives a salt, the structure may show the parent alone. Read-outs that look alike come from different tables or passages of the source. Values belong to the molecule of their own block, whether it stands above or below them.

What was measured:
CDK2/Cyclin A = CDK2/Cyclin A (Homo sapiens, UniProt P24941); assay: Inhibition of CDK2/Cyclin A Retinoblastoma Kinase Activity; type: biochemical; details: for Ki: apparent Ki, CDK2/proteolyzed cyclin A, Rb fragment substrate, 25 μM ATP
Procedure, shortened: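 Baculovirus-expressed CDK2 complexed with proteolyzed cyclin A (10 or 19 nM), Rb fragment substrate, 25 μM [32P/33P]ATP, HEPES pH 7.4, 30 °C for 60 or 75 min under initial-rate conditions. Filter capture and phosphorimager readout; apparent Ki fitted to competitive or tight-binding competitive inhibition.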

[1] = biological target: human CDK4 and genetically truncated (1-264) cyclin D3 (Homo sapiens, UniProt P11802); assay: Inhibition of CDK4/Cyclin D Retinoblastoma Kinase Activity; type: biochemical; details: for Ki: apparent Ki, CDK4/truncated cyclin D3, Rb fragment substrate, 25 μM ATP
human CDK4 and genetically truncated (1-264) cyclin D3, sequence (P11802 whole entry, the tested form may be a part): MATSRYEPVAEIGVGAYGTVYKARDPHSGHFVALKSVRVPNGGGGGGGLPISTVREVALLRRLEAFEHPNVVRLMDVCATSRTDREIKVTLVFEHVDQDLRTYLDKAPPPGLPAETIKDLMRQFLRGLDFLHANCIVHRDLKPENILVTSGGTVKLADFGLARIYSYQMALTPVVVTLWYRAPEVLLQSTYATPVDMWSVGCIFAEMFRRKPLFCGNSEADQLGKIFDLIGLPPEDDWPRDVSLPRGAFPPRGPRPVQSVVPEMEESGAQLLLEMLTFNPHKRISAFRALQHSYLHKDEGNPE
human CDK4 and genetically truncated (1-264) cyclin D3, sequence (P30281 1-264 partner): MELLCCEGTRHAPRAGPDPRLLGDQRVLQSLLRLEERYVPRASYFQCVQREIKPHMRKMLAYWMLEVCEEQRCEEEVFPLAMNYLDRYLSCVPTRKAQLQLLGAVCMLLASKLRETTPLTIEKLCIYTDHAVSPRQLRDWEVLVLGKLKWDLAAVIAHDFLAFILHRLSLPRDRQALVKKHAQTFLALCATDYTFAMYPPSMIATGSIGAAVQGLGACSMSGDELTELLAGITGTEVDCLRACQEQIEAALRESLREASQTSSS
Procedure, shortened: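 Human CDK4/truncated cyclin D3 (1-264) complex from baculovirus-infected insect cells, 5 nM, phosphorylating Rb fragment (residues 386-928, His-tagged) with 25 μM [32/33P]ATP in HEPES pH 7.4, MgCl2, 2% DMSO at 30° C. for 20 min (60 min for tight binders). Filter-captured radioactivity by phosphorimager; apparent Ki from competitive or tight-binding fits.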

HCT-116 cell line = assay: Inhibition of cell growth, tetrazolium salt (MTT) assay; type: cell-based; details: for IC50: Homo sapiens, HCT-116, 120 h, MTT, three to five days; for HCT-116 % Inhibition at 0.25 μM: 0.25 μM compound
Procedure, shortened: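 MTT colorimetric viability: three-to-five-day compound exposure in 0.5% (v/v) DMSO at 37° C, MTT 0.2 mg/mL for the last 4 h, A540 compared with vehicle-treated cells.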

[2] = first HCT-116 column (c4), read-out: HCT-116 IC50
[3] = second HCT-116 column (c5), read-out: HCT-116 IC50
[4] = 0.1 μM compound, HCT-116, Table 4
[5] = 0.1 μM compound, HCT-116, Table 3

Structure (SMILES): Nc1nc(NC2CCN(C(=S)Oc3ccc(F)cc3)CC2)sc1C(=O)c1c(F)cccc1F [Example C11, 4-[4-Amino-5-(2,6-difluoro-benzoyl)-thiazol-2-ylamino}-piperidine-1-carbothioic acid —O-(4-Fluoro-phenyl) ester]
Ki (CDK2/Cyclin A): 6.5 nM
Ki [1]: 10 nM
IC50 (HCT-116 cell line; [2]): 400 nM
IC50 (HCT-116 cell line; [3]): 2700 nM

Structure (SMILES): CC1=NC(C)CN1c1ccc(S(=O)(=O)N2CCC(Nc3nc(N)c(C(=O)c4c(F)cccc4F)s3)CC2)cn1 (centres unmarked) [Example G23, 1-(4-Amino-2-{1-[6-(2,4-dimethyl-4,5-dihydro-imidazol-1-yl)-pyridin-3-sulfonyl]-piperidin-4-ylamino}-thiazol-5-yl)-1-(2,6-difluoro-phenyl)-methanone Hydrochloride]
Ki (CDK2/Cyclin A): < 1 nM
Ki [1]: 0.44 nM
IC50 (HCT-116 cell line; [2]): 750 nM
IC50 (HCT-116 cell line; [3]): 5000 nM

Structure (SMILES): COC(=O)c1ccccc1S(=O)(=O)N1CCC(Nc2nc(N)c(C(=O)c3c(F)cccc3F)s2)CC1 [Example P28]
CDK2 % Inhibition at 0.03 μM (CDK2/Cyclin A; 0.03 μM compound, Table 3): 55%
CDK4 % Inhibition at 0.03 μM ([1]; 0.03 μM compound, Table 3): 56%
HCT-116 % Inhibition at 0.1 μM (HCT-116 cell line; [5]): 7%
HCT-116 % Inhibition at 0.25 μM (HCT-116 cell line; HCT-116, Table 3): 28%

Structure (SMILES): Nc1nc(NC2CCN(C(=O)Oc3ccc([N+](=O)[O-])cc3)CC2)sc1C(=O)c1c(F)cccc1F [Example C16, 4-[4-Amino-5-(2,6-difluoro-benzoyl)-thiazol-2-ylamino]-piperidine-1-carboxylic acid 4-nitro-phenyl ester]
Ki (CDK2/Cyclin A): 18 nM
Ki [1]: 7.5 nM
IC50 (HCT-116 cell line; read-out: HCT-116 IC50, first HCT-116 column (c4)): 130 nM
IC50 (HCT-116 cell line; read-out: HCT-116 IC50, second HCT-116 column (c5)): 400 nM

Structure (SMILES): Nc1nc(NC2CCN(S(=O)(=O)c3ccc(NCC(O)CO)nc3)CC2)sc1C(=O)c1c(F)cccc1F (centres unmarked) [Example G19, 1-(4-Amino-2-{1-[6-(2,3-dihydroxy-propylamino)-pyridine-3-sulfonyl]-piperidin-4-ylamino}-thiazol-5-yl)-1-(2,6-difluoro-phenyl)-methanone]
Ki (CDK2/Cyclin A): 2 nM
Ki [1]: 3.4 nM
IC50 (HCT-116 cell line; [2]): 4100 nM
IC50 (HCT-116 cell line; [3]): > 5000 nM

Structure (SMILES): CC1(C)CN(CCCS(=O)(=O)N2CCC(Nc3nc(N)c(C(=O)c4c(F)cccc4F)s3)CC2)CCN1 [Example K14, 1-(4-Amino-2-{1-[3-(3,3-dimethylpiperazin-1-yl)propane-1-sulfonyl]-piperidin-4-ylamino}-thiazol-5-yl)-1-(2,6-difluoro-phenyl)-methanone.]
Ki (CDK2/Cyclin A): 7.9 nM
Ki [1]: 2.9 nM
IC50 (HCT-116 cell line; [2]): 3300 nM
IC50 (HCT-116 cell line; [3]): > 5000 nM

Structure (SMILES): COC(=O)NC(=O)N1CCC(Nc2nc(N)c(C(=O)c3c(F)cccc3F)s2)CC1 [Example O61]
CDK2 % Inhibition At 0.03 μM (CDK2/Cyclin A; 0.03 μM compound, Table 2): 33%
CDK4 % Inhibition at 0.03 μM ([1]; 0.03 μM compound, Table 2): 12%
HCT-116 % Inhibition at 0.25 μM (HCT-116 cell line; HCT-116, Table 2): 38%

The next lines start with results.

CDK2 % Inhibition at 0.03 μM (CDK2/Cyclin A; at 0.03 μM): 24%
CDK4 % Inhibition at 0.03 μM ([1]; at 0.03 μM): 32%
Structure (SMILES): Nc1nc(NC2CCN(C(=O)c3cccnc3Sc3ccccc3)CC2)sc1C(=O)c1c(F)cccc1F [Example R41]
HCT-116 % Inhibition at 0.1 μM (HCT-116 cell line; HCT-116 cells, at 0.1 μM): 0%
HCT-116 5 Inhibition at 0.25 μM (HCT-116 cell line; HCT-116 cells): 41

CDK2 % Inhibition at 0.03 μM (CDK2/Cyclin A; 0.03 μM compound, Table 4): 21%
CDK4 % Inhibition at 0.03 μM ([1]; 0.03 μM compound, Table 4): 60%
Structure (SMILES): CCCCOc1ccc(C(=O)N2CCC(Nc3nc(N)c(C(=O)c4c(F)cccc4F)s3)CC2)cc1 [Example Q29]
HCT-116 % Inhibition at 0.1 μM (HCT-116 cell line; [4]): 7%
HCT-116 % Inhibition at 0.25 μM (HCT-116 cell line; HCT-116, Table 4): 50%

CDK2 % Inhibition at 0.03 μM (CDK2/Cyclin A; 0.03 μM compound, Table 3): 48%
CDK4 % Inhibition at 0.03 μM ([1]; 0.03 μM compound, Table 3): 65%
Structure (SMILES): Nc1nc(NC2CCN(S(=O)(=O)c3ccc(-c4ccccc4)cc3)CC2)sc1C(=O)c1c(F)cccc1F [Example P65]
HCT-116 % Inhibition at 0.1 μM (HCT-116 cell line; [5]): 6%
HCT-116 % Inhibition at 0.25 μM (HCT-116 cell line; HCT-116, Table 3): 31%

CDK2 % Inhibition at 0.03 μM (CDK2/Cyclin A; at 0.03 μM): 5%
CDK4 % Inhibition at 0.03 μM ([1]; at 0.03 μM): 39%
Structure (SMILES): Nc1nc(NC2CCN(C(=O)c3ccccc3-c3ccccc3)CC2)sc1C(=O)c1c(F)cccc1F [Example R123]
HCT-116 % Inhibition at 0.1 μM (HCT-116 cell line; HCT-116 cells, at 0.1 μM): 0%
HCT-116 5 Inhibition at 0.25 μM (HCT-116 cell line; HCT-116 cells): 38

CDK2 % Inhibition at 0.03 μM (CDK2/Cyclin A; 0.03 μM compound, Table 4): 23%
CDK4 % Inhibition at 0.03 μM ([1]; 0.03 μM compound, Table 4): 57%
Structure (SMILES): Nc1nc(NC2CCN(C(=O)c3ccccc3Br)CC2)sc1C(=O)c1c(F)cccc1F [Example Q10]
HCT-116 % Inhibition at 0.1 μM (HCT-116 cell line; [4]): 1%
HCT-116 % Inhibition at 0.25 μM (HCT-116 cell line; HCT-116, Table 4): 42%
